Data: patent US20230079045A1 (priority 2019, published 2023)
pEC50: −log10 of the molar value.

What follows are molecules tested on IFV A/PR/8/34 (assay: cytopathic effect (CPE) antiviral test in MDCK cells, IFV A/PR/8/34). Conditions: unidentified influenza virus, PR/8, MDCK, 120 h, read-out: EC50(IFV A/PR/8/34).
Assay type: cell-based, influenza virus

SMILES | pEC50
Cc1nnn(C(c2ccc(F)cc2)C2CCN(C(=O)c3cc(-c4nc5cc(NC(=O)[C@@H]6C[C@@H]6F)ccc5o4)ccn3)CC2)n1 (single isomer, unassigned) [Compound 202] | 8.59
[2H]C([2H])([2H])c1nnn(C(c2ccccc2)C2CCN(C(=O)c3cc(-c4nc5cc(NC(=O)[C@@H]6C[C@@H]6F)ccc5o4)ccn3)CC2)n1 (mixture of isomers) [Compound 201, (1S,2S)-2-fluoro-N-(2-(2-(4-((R/S)-(5-(methyl-d3)-2H-tetrazol-2-yl)(phenyl)methyl)piperidine-1-carbonyl)pyridin-4-yl)benzo[d]oxazol-5-yl)cyclopropane-1-carboxamide] | 8.44
Cc1nnn(C(c2ccccc2)C2CC3CCC(C2)N3C(=O)c2cc(-c3nc4cc(NC(=O)[C@@H]5C[C@@H]5F)ccc4o3)ccn2)n1 (mixture of isomers) [Compound 208, (1S,2S)-2-fluoro-N-(2-(2-(3-((R/S)-(5-methyl-2H-tetrazol-2-yl)(phenyl)methyl)-8-azabicyclo[3.2.1]octane-8-carbonyl)pyridin-4-yl)benzo[d]oxazol-5-yl)cyclopropanecarboxamide] | 8.16
O=C(c1cc(-c2nc3ccc(NC(=O)C4(F)CC4)cc3o2)ccn1)N1CCN(C(c2ccccc2)c2nnn(C(F)F)n2)CC1 (racemic) [Compound 125, (R/S)—N-(2-(2-(4-((2-(difluoromethyl)-2H-tetrazol-5-yl)(phenyl)methyl)piperazine-1-carbonyl)pyridin-4-yl)benzo[d]oxazol-6-yl)-1-fluorocyclopropane-1-carboxamide] | 7.92
Cc1nnn(C(c2ccccc2)C2CCN(C(=O)c3cc(-c4cc5cc(NC(=O)C6(F)CC6)ccc5o4)ccn3)CC2)n1 (racemic) [Compound 144] | 8.15
Cn1cc(-c2ccc3oc(-c4ccnc(C(=O)N5CCN(C(c6ccccc6)c6nnn(C(F)F)n6)CC5)c4)cc3c2)cn1 (racemic) [Compound 165, (R/S)-(4-((2-(difluoromethyl)-2H-tetrazol-5-yl)(phenyl)methyl)piperazin-1-yl)(4-(5-(1-methyl-1H-pyrazol-4-yl)benzofuran-2-yl)pyridin-2-yl)methanone] | 8.00
[2H]C([2H])([2H])C(C(=O)Nc1ccc2oc(-c3ccnc(C(=O)N4CCC(C(c5ccccc5)n5nnc(C)n5)CC4)c3)cc2c1)C([2H])([2H])[2H] (racemic) [Compound 137, 3,3,3-trideuterio-N-[2-[2-[4-[(R/S)-(5-methyltetrazol-2-yl)-phenyl-methyl]piperidine-1-carbonyl]-4-pyridyl]benzofuran-5-yl]-2-(trideuteriomethyl)propanamide] | 7.96
[2H]C([2H])([2H])C(C(=O)Nc1ccc2oc(-c3ccnc(C(=O)N4CCC(C(c5ccccc5)n5nnc(C)n5)CC4)c3)nc2c1)C([2H])([2H])[2H] (racemic) [Compound 132, 3,3,3-trideuterio-N-[2-[2-[4-[(R/S)-(5-methyltetrazol-2-yl)-phenyl-methyl]piperidine-1-carbonyl]-4-pyridyl]-1,3-benzoxazol-5-yl]-2-(trideuteriomethyl)propanamide] | 8.40
O=C(c1cc(-c2nc3cc(-c4cn(C(F)F)cn4)ccc3o2)ccn1)N1CCC(C(c2ccccc2)n2nnc(CO)n2)CC1 (stereo not drawn) [Compound 217, (4-(5-(1-(difluoromethyl)-1H-imidazol-4-yl)benzo[d]oxazol-2-yl)pyridin-2-yl)(4-((5-(hydroxymethyl)-2H-tetrazol-2-yl)(phenyl)methyl)piperidin-1-yl)methanone] | 8.48
O=C(Nc1ccc2oc(-c3ccnc(C(=O)N4CCN(C(c5ccccc5)c5nnn(CCO)n5)CC4)c3)nc2c1)[C@@H]1C[C@@H]1F (mixture of isomers) [Compound 212, (1S,2S)-2-fluoro-N-(2-(2-(4-((R/S)-(2-(2-hydroxyethyl)-2H-tetrazol-5-yl)(phenyl)methyl)piperazine-1-carbonyl)pyridin-4-yl)benzo[d]oxazol-5-yl)cyclopropane-1-carboxamide] | 8.66
CCn1cc(-c2ccc3oc(-c4ccnc(C(=O)N5CCN(C(c6ccccc6)c6nnn(C(F)F)n6)CC5)c4)nc3c2)cn1 (racemic) [Compound 127, (R/S)-(4-((2-(difluoromethyl)-2H-tetrazol-5-yl)(phenyl)methyl)piperazin-1-yl)(4-(5-(1-ethyl-1H-pyrazol-4-yl)benzo[d]oxazol-2-yl)pyridin-2-yl)methanone] | 8.40
O=C(Nc1ccc2oc(-c3ccnc(C(=O)N4CCC(C(c5ccccc5)n5nnc(CO)n5)CC4)c3)nc2c1)[C@@H]1C[C@@H]1F (mixture of isomers) [Compound 197, (1S,2S)-2-fluoro-N-(2-(2-(4-((R/S)-(5-(hydroxymethyl)-2H-tetrazol-2-yl)(phenyl)methyl)piperidine-1-carbonyl)pyridin-4-yl)benzo[d]oxazol-5-yl)cyclopropane-1-carboxamide] | 9.05
NCc1nnn(C(c2ccccc2)C2CCN(C(=O)c3cc(-c4nc5cc(NC(=O)[C@@H]6C[C@@H]6F)ccc5o4)ccn3)CC2)n1 (mixture of isomers) [Compound 210, (1S,2S)—N-(2-(2-(4-((R/S)-(5-(aminomethyl)-2H-tetrazol-2-yl)(phenyl)methyl)piperidine-1-carbonyl)pyridin-4-yl)benzo[d]oxazol-5-yl)-2-fluorocyclopropane-1-carboxamide] | 9.10
CC(C)(F)C(=O)Nc1ccc2oc(-c3ccnc(C(=O)N4CCC(C(c5ccccc5)n5nnc(C(F)F)n5)CC4)c3)nc2c1 (racemic) [Compound 164, (R/S)—N-(2-(2-(4-((5-(difluoromethyl)-2H-tetrazol-2-yl)(phenyl)methyl)piperidine-1-carbonyl)pyridin-4-yl)benzo[d]oxazol-5-yl)-2-fluoro-2-methylpropanamide] | 7.89
O=C(c1cc(-c2nc3cc(-c4cnn(C(F)(F)F)c4)ccc3o2)ccn1)N1CCN(C(c2ccccc2)c2nnn(C(F)F)n2)CC1 (racemic) [Compound 161, (R/S)-(4-((2-(difluoromethyl)-2H-tetrazol-5-yl)(phenyl)methyl)piperazin-1-yl)(4-(5-(1-(trifluoromethyl)-1H-pyrazol-4-yl)benzo[d]oxazol-2-yl)pyridin-2-yl)methanone] | 7.70
Cc1n[nH]cc1-c1ccc2oc(-c3ccnc(C(=O)N4CCN(C(c5ccccc5)c5nnn(C(F)F)n5)CC4)c3)nc2c1 (racemic) [Compound 155, (R/S)-(4-((2-(difluoromethyl)-2H-tetrazol-5-yl)(phenyl)methyl)piperazin-1-yl)(4-(5-(3-methyl-1H-pyrazol-4-yl)benzo[d]oxazol-2-yl)pyridin-2-yl)methanone] | 9.00
Cc1nnn(C(c2ccccc2)C2CCN(C(=O)c3nccc(-c4nc5cc(NC(=O)[C@@H]6C[C@@H]6F)ccc5o4)c3F)CC2)n1 (mixture of isomers) [Compound 219, (1S,2S)-2-fluoro-N-(2-(3-fluoro-2-(4-((R/S)-(5-methyl-2H-tetrazol-2-yl)(phenyl)methyl)piperidine-1-carbonyl)pyridin-4-yl)benzo[d]oxazol-5-yl)cyclopropanecarboxamide] | 8.72
O=C(c1cc(-c2nc3cc(-c4cnn(C5COC5)c4)ccc3o2)ccn1)N1CCN(C(c2ccccc2)c2nnn(C(F)F)n2)CC1 (racemic) [Compound 151, (R/S)-(4-((2-(difluoromethyl)-2H-tetrazol-5-yl)(phenyl)methyl)piperazin-1-yl)(4-(5-(1-(oxetan-3-yl)-1H-pyrazol-4-yl)benzo[d]oxazol-2-yl)pyridin-2-yl)methanone] | 7.42
